In the experiment the target is T1, BKB1 receptors (Homo sapiens, UniProt P46663).
T1 construct: Human (IMR-90) lung fibroblast cells expressing native B1 receptors; endogenous in cells; host or cells: IMR-90 human lung fibroblasts, interleukin-treated to up-regulate BKB1 receptors
T1 sequence (P46663 1-353): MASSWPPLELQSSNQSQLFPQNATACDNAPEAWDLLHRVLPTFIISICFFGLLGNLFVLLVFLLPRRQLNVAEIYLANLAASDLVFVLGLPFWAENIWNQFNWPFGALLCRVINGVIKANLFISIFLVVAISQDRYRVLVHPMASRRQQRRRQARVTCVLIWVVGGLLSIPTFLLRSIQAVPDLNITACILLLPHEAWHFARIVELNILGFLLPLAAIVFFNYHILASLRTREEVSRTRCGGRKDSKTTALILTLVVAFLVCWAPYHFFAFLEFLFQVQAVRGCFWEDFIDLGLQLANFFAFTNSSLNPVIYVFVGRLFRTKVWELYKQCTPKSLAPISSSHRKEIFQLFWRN
The experiment can be described thus: Calcium mobilization assay (FLIPR), B1 receptors in IMR-90 cells. The settings on record: Human IMR-90 lung fibroblast cells, up-regulated BKB1 receptors, agonist desArg10-kallidin (DAKD) 2 to 8 nM, calcium-dependent fluorescence. Type of experiment: cell-based. The protocol: Calcium mobilization assay (FLIPR)—Human (IMR-90) lung fibroblast cells expressing native B1 receptors were harvested by trypsinization and seeded into black wall/clear bottom 96-well plates (Costar 3904; Corning Life Sciences, Acton, Mass.) at approximately 13,000 cells/well. After 1 day incubation, cells were treated with […] (0.35 ng/ml) in 10% FBS/MEM for 2 h to up-regulate BKB1 receptors. Induced cells were loaded with fluorescent calcium indicator by incubation with 2.3 μM Fluo-4/acetoxymethyl ester (Invitrogen) at 37° C. for 1.5 h in the presence of an anion transport inhibitor (2.5 mM probenecid in 1% FBS/MEM). Extracellular dye was removed by washing with assay buffer (2.5 mM probenecid, 0.1% BSA in 20 mM HEPES/HBSS without bicarbonate or phenol red, pH 7.5) and cell plates were kept in the dark until used. Test compounds were assayed at eight concentrations in triplicate. Addition of test compounds to the cell plate and incubation for 5 min at 35° C., followed by the addition of 2 to 8 nM final BK1 agonist desArg^10-kallidin (DAKD, 3×EC50) was carried out in the fluorimetric imaging plate reader (FLIPR; Molecular Devices) while continuously monitoring calcium-dependent fluorescence.

pIC50: −log10 of the molar value.

As to `CC(C(=O)NCCCN(C)C)c1ccc(Oc2cccc3ccccc23)cc1` (stereo not drawn) [Compound 62, N-[3-(dimethylamino)propyl]-2-[4-(naphthalen-1-yloxy)phenyl]propanamide], the negative-log IC50 (pIC50) is 5.42. In the case of `Cc1ccc(OCC(O)CNC(=O)C(C)c2ccc(OS(=O)(=O)C(F)(F)F)cc2)cc1C` (stereo not drawn) [Compound 51, 4-[3-(3,4-dimethylphenoxy)-2-hydroxypropyl]amino-1-oxopropan-2-yl)phenyl trifluoromethanesulfonate] it was 4.94. Take `CCCC/C=C/c1cccc(C(C)C(=O)NCCNC(C)C)c1` (stereo not drawn) [Compound 27, 2-{3-[hex-1-en-1-yl]phenyl}-N-[2-(propan-2-ylamino)ethyl]propanamide]: the pIC50 was 5.07. The same measure for `CC(C)Cc1ccc(C(C)C(=O)NC(N)=O)cc1` (stereo not drawn) [Compound 38, N-carbamoyl-2-[4-(2-methylpropyl)phenyl]propanamide]: 4.70; for `COc1cc(Nc2cccc(C(C)C(=O)NNC(=O)c3ccco3)c2)cc(C(F)(F)F)c1` (stereo not drawn) [Compound 54, N′-{2-[3-(3-methoxy-5-(trifluoromethyl)phenylamino)phenyl]propanoyl}furan-2-carbohydrazide]: 5.07.

As for `Cc1ccnn1CCNC(=O)C(C)(F)c1ccc(OS(=O)(=O)C(F)(F)F)cc1` (stereo not drawn) [Compound 2, 4-(2-fluoro-1-{[2-(5-methyl-1H-pyrazol-1-yl)ethyl]amino}-1-oxopropan-2-yl)phenyl trifluoromethanesulfonate], the negative-log IC50 (pIC50) was 5.21. In the case of `CC(C(=O)NCCOc1ccc(F)cc1)c1cccc(OS(=O)(=O)C(F)(F)F)c1` (stereo not drawn) [Compound 20, 3-(1-{[2-(4-fluorophenoxy)ethyl]amino}-1-oxopropan-2-yl)phenyl trifluoromethanesulfonate] it was 4.78. The same measure for `CC(C(=O)Nc1ccncn1)c1cccc(NC2CC2)c1` (stereo not drawn) [Compound 14, 2-[3-(cyclopropylamino)phenyl]-N-(pyrimidin-4-yl)propanamide]: 5.20; for `CC(C)Cc1ccc(C(C)C(=O)Nc2ccncc2)cc1` (stereo not drawn) [Compound 37, 2-[4-(2-methylpropyl)phenyl]-N-(pyridin-4-yl)propanamide]: 5.86; for `CC(C(=O)NCCC1CCCN1C)c1ccc(Oc2cccc3ccccc23)cc1` (stereo not drawn) [Compound 65, 2-[4-(naphthalen-1-yloxy)phenyl]-N-[2-(1-methylpyrrolidin-2-yl)ethyl]propanamide]: 5.32. In the case of `COC(=O)C(CNC(=O)OC(C)(C)C)NC(=O)C(C)c1ccc(Oc2cccc3ccccc23)cc1` (stereo not drawn) [Compound 60, methyl 3-[(tert-butoxycarbonyl)amino]-2-[4-(naphthalen-1-yloxyphenyl)propanoyl]aminopropanoate] it was 4.98; in that of `COc1cc(Nc2cccc(C(C)C(=O)NCC(C)(C)N)c2)cc(C(F)(F)F)c1` (stereo not drawn) [Compound 58, N-(2-amino-2-methylpropyl)-2-[3-{[3-methoxy-5-(trifluoromethyl)phenyl]amino}phenyl]propanamide], 5.23.

On to `CC(C(=O)NCCN1CCOCC1)c1ccc(Oc2cccc3ccccc23)cc1` (stereo not drawn) [Compound 67, 2-[4-(naphthalen-1-yloxy)phenyl]-N-[2-(morpholin-4-yl)ethyl]propanamide], for which the pIC50 is 5.39. In the case of `Cc1cc(NC(=O)C(C)c2cccc(C(=O)c3cccs3)c2)n(C)n1` (stereo not drawn) [Compound 24, N-(1,3-dimethyl-1H-pyrazol-5-yl)-2-[3-(thiophen-2-ylcarbonyl)phenyl]propanamide] it was 5.13. Regarding `CC(F)(C(=O)NCCNc1ccccn1)c1ccc(OS(=O)(=O)C(F)(F)F)cc1` (stereo not drawn) [Compound 3, 4-(2-fluoro-1-oxo-1-{[2-(pyridin-2-ylamino)ethyl]amino}propan-2-yl)phenyl trifluoromethanesulfonate], the pIC50 is 4.88.

Regarding `CCCC/C=C/c1cccc(C(C)C(=O)Nc2ccncn2)c1` (stereo not drawn) [Compound 28, 2-{3-[hex-1-en-1-yl]phenyl}-N-(pyrimidin-4-yl)propanamide], the pIC50 is 5.07. In the case of `CC(C(=O)Nc1ccccc1)c1cccc(C(=O)c2ccccc2)c1` (stereo not drawn) [Compound 35, N-phenyl-2-[3-(phenylcarbonyl)phenyl]propanamide] it was 5.00; in that of `C=C(C)CNC(=O)C(C)c1cccc(C(=O)c2cccs2)c1` (stereo not drawn) [Compound 23, N-(2-methylprop-2-en-1-yl)-2-[3-(thiophen-2-ylcarbonyl)phenyl]propanamide], 4.66; in that of `CC(C(=O)Nc1ccc(Cc2ccncc2)cc1)c1ccc(Nc2nc(C(F)(F)F)cs2)cc1` (stereo not drawn) [Compound 44, N-[4-(pyridin-4-ylmethyl)phenyl]-2-(4-{[4-(trifluoromethyl)-1,3-thiazol-2-yl]amino}phenyl)propanamide], 4.94. Consider `CC(C(=O)Nc1cnccn1)c1ccc(Oc2ccc(F)cc2)cc1` (stereo not drawn) [Compound 75, 2-[4-(4-fluorophenoxy)phenyl]-N-(pyrazin-2-yl)propanamide], for which the negative-log IC50 (pIC50) was 5.92.

Turning to `CCc1cc(NC(=O)C(C)c2ccc(Nc3nc(C(F)(F)F)co3)cc2)[nH]n1` (stereo not drawn) [Compound 29, N-(3-ethyl-1H-pyrazol-5-yl)-2-(4-{[4-(trifluoromethyl)-1,3-oxazol-2-yl]amino}phenyl)propanamide], the negative-log IC50 (pIC50) is 5.15.

For `COc1cccc(Nc2ccc(C(C)C(=O)NC3CCN(Cc4ccccc4)CC3)cc2)c1` (stereo not drawn) [Compound 9, 2-{4-[(3-methoxyphenyl)amino]phenyl}-N-(1-benzylpiperidin-4-yl)propanamide], the negative logarithm of the IC50 (pIC50) is 5.11. The same measure for `CCn1nc(C)cc1NC(=O)C(C)c1ccc(Nc2nc(C(F)(F)F)cs2)cc1` (stereo not drawn) [Compound 41, N-(1-ethyl-3-methyl-1H-pyrazol-5-yl)-2-(4-{[4-(trifluoromethyl)-1,3-thiazol-2-yl]amino}phenyl)propanamide]: 5.00; for `CC(C(=O)NC(c1ccco1)N1CCOCC1)c1ccc(Nc2nc(C(F)(F)F)cs2)cc1` (stereo not drawn) [Compound 43, N-[furan-2-yl(morpholin-4-yl)methyl]-2-(4-{[4-(trifluoromethyl)-1,3-thiazol-2-yl]amino}phenyl)propanamide]: 4.89.

`CC(C)(C(=O)NCCc1ccncc1)c1ccc(OS(=O)(=O)C(F)(F)F)cc1` [Compound 7, 4-(2-methyl-1-oxo-1-{[2-(pyridin-4-yl)ethyl]amino}propan-2-yl)phenyl trifluoromethanesulfonate]: the pIC50 was 4.94.

On to `Cc1cc(NC(=O)C(C)c2ccc(CC(C)C)cc2)n(C)n1` (stereo not drawn) [Compound 40, N-(1,3-dimethyl-1H-pyrazol-5-yl)-2-[4-(2-methylpropyl)phenyl]propanamide], for which the pIC50 was 5.68. For `CC(C(=O)Nc1nc(C(C)(C)C)cs1)c1ccc(NS(=O)(=O)C(C)C)cc1` (stereo not drawn) [Compound 21, 2-{4-[(propan-2-ylsulfonyl)amino]phenyl}-N-(4-tert-butyl-1,3-thiazol-2-yl)propanamide], the pIC50 is 5.04.

In the case of `COc1cc(Nc2cccc(C(C)C(=O)NCCNCc3ccccc3)c2)cc(C(F)(F)F)c1` (stereo not drawn) [Compound 57, 2-{3-[(3-methoxy-5-(trifluoromethyl)phenyl)amino]phenyl}-N-[2-(benzylamino)ethyl]propanamide], the negative logarithm of the IC50 (pIC50) is 5.46. The same measure for `CC(C(=O)Nc1ccncc1)c1ccc(Nc2ccccc2-n2cccc2)cc1` (stereo not drawn) [Compound 82]: 5.24; for `COc1cccc(Nc2ccc(C(C)C(=O)Nc3cc(C)nn3C)cc2)c1` (stereo not drawn) [Compound 10]: 5.10.
